Laboratory results reported in paper PMC2694220 (Biochemistry, 2009).

How the values were obtained:
[1] = molecular target: WbpE (Pseudomonas aeruginosa, UniProt Q9HZ76); assay: capillary electrophoresis, coupled WbpB/WbpE reaction; type: biochemical; details: 25 mM L-glutamine in place of L-glutamate; otherwise same
[2] = molecular target: WbpB (Pseudomonas aeruginosa, UniProt G3XD23); assay: capillary electrophoresis of conversion to UDP-GlcNAc; type: biochemical; details: 10 mM α-KG, 50 mM HEPES pH 8.0, 30 °C, no WbpE
[3] = test system: CC(=O)N[C@H]1[C@@H](OP(=O)(O)OP(=O)(O)OC[C@H]2O[C@@H](n3ccc(=O)[nH]c3=O)[C@H](O)[C@@H]2O)O[C@H](C(=O)O)[C@@H](O)[C@@H]1N; assay: purified protein; details: 1.5 mM AcCoA, 50 mM HEPES pH 7.0, 30 °C, BSA carrier

Chain of WbpE (Q9HZ76 whole entry): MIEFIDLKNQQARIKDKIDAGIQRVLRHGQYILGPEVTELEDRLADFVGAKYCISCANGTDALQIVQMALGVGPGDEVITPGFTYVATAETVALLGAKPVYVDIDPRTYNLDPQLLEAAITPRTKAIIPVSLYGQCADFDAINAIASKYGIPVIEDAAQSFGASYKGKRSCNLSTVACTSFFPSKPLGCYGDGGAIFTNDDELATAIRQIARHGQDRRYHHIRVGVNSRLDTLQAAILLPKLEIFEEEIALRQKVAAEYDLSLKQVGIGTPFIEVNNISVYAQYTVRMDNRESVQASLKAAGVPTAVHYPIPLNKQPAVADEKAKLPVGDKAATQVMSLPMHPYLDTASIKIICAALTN
Chain of WbpB (G3XD23 whole entry): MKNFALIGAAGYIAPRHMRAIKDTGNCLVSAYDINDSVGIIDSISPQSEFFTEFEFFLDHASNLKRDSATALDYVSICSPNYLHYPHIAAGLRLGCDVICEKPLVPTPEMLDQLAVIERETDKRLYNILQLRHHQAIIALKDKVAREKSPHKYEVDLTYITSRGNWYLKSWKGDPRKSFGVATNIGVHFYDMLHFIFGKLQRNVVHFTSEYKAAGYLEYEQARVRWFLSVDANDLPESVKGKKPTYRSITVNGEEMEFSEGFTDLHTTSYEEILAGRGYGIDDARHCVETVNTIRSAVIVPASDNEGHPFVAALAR

## NC(=O)CC[C@H](N)C(=O)O [L-glutamine]
[1]
  % conversion at 25 mM: 10%

## CC(=O)N[C@H]1[C@@H](OP(=O)(O)OP(=O)(O)OC[C@H]2O[C@@H](n3ccc(=O)[nH]c3=O)[C@H](O)[C@@H]2O)O[C@H](C(=O)O)[C@@H](O)[C@@H]1O [UDP-GlcNAcA]
[2]
  capillary electrophoresis of conversion to UDP-GlcNAc(3keto)A: complete conversion of the UDP-GlcNAcA starting material to the UDP-GlcNAc(3keto)A product was observed by CE

## WbpD (Pseudomonas aeruginosa PAO1)
[3]
  Km: 107 ± 15 µM
  kcat: (2.9 ± 0.12) × 10^3 min^−1
